According to ChEMBL document CHEMBL1201862, “PubChem BioAssay data set” (2004):
Calls of active or inactive are those of the source.

Assays:
[1] = target: T1, E3 ubiquitin-protein ligase XIAP (Homo sapiens, UniProt P98170); assay: small molecules displacing peptide from XIAP – biochemical, IAP family, fluorescence polarization (AID 1018); type: functional
[2] = target: T1, E3 ubiquitin-protein ligase XIAP; assay: Counter Screen using XIAP-Bir3 for Chemical Antagonists of Bir1/2 domains of IAP-family anti-apoptotic proteins. [Related pubchem assays (depositor defined):AID1018, AID1449, AID1514, AID1638, AID1749, AID1750, AID488957, AID488963]
[3] = target: T2, X-box-binding protein 1 (Homo sapiens, UniProt P17861); type: functional, Cricetulus griseus;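 note: confirmatory dose-response counter-screen serving a CHOP assay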
T2 sequence (P17861 whole entry): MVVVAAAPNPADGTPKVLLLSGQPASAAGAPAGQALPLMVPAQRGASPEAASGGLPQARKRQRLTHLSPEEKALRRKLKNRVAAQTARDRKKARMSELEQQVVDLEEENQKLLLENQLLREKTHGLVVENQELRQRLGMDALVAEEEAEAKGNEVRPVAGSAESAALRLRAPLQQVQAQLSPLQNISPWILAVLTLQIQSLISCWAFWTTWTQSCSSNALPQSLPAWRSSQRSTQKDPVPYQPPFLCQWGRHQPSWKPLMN

[4] = target: T3, Heat shock factor protein 1 (Mus musculus, UniProt P38532); assay: decrease of HSF1-responsive luciferase luminescence – cell-based, NIH3T3, dose retest, confirmation (AID 2382); type: functional;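 note: NIH3T3 fibroblasts with HSF1-driven luciferase reporter stressed by proteasome inhibitor MG132; luminescence from HSF1-driven luciferase expression after 8 hours of MG132 stress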
T3 sequence (P38532 whole entry): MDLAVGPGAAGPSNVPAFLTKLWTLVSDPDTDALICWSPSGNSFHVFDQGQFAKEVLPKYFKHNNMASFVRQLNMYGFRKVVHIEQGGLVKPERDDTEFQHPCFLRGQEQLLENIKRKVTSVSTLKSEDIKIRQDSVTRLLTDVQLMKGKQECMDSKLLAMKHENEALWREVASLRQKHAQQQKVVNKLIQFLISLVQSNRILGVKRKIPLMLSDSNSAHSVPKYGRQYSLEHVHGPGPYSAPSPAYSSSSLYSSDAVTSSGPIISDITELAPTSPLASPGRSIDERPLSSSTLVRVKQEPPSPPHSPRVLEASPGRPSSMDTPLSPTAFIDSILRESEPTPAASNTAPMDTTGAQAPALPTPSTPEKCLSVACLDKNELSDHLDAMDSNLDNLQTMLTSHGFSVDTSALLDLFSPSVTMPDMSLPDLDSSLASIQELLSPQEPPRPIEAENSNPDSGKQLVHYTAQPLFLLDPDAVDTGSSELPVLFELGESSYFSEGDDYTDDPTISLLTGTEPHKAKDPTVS

[5] = target: T4, Aryl hydrocarbon receptor (Homo sapiens, UniProt P35869); assay: Luminescence-based cell-based high throughput dose response assay for activators of the Aryl Hydrocarbon Receptor (AHR). [Related pubchem assays: 2796 (Primary screen (AHR activators in singlicate)), 2845 (Confirmation screen (AHR activators in triplicate)), 434939 (Counterscreen (PXR activators in triplicate)), 2804 (Summary (AHR activators))]; type: ADME
T4 sequence (P35869 whole entry): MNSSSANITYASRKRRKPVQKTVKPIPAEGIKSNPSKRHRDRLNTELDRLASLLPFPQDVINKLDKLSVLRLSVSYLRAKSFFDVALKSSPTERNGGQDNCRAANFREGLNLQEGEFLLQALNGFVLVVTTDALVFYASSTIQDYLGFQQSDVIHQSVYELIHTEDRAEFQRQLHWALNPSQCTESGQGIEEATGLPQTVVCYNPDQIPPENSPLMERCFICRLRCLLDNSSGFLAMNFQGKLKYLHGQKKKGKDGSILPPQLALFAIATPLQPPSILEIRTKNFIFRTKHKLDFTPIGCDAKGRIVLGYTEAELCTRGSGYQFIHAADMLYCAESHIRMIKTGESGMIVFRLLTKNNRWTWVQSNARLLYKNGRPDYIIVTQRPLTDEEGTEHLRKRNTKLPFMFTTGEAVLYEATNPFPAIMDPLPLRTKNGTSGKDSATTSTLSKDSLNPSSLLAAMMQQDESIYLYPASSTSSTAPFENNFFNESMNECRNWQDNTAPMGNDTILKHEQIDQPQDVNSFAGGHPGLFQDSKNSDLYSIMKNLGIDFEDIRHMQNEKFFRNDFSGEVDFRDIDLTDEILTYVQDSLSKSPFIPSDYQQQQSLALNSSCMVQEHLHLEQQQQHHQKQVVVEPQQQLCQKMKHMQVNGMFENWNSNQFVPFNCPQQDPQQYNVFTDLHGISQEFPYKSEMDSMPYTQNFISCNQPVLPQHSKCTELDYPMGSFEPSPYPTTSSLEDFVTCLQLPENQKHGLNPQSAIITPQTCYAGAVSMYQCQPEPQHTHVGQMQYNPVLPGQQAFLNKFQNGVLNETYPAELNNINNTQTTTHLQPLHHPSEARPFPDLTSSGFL

[6] = target: T5, Caspase-6 (Homo sapiens, UniProt P55212); assay: inhibition of CASP6 peptide cleavage – biochemical, VEID-R110 fluorescence, cherry-pick, dose response (AID 720632)
T5 sequence (P55212 whole entry): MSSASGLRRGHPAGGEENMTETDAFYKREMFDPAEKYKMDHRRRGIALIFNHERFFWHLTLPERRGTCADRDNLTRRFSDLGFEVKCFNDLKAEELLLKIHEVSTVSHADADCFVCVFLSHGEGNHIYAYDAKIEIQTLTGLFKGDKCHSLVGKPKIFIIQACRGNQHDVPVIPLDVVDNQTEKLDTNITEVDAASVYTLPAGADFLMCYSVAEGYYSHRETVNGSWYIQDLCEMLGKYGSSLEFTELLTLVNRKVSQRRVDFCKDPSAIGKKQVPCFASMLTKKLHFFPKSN

[7] = tested on: Streptococcus; assay: GAS UMAA2166 growth inhibition – luminescence, BacTiterGlo, counter-screen for streptokinase expression inhibitor project, dose response (AID 1915); type: functional, organism-based;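 note: potency for reduction of bacterial viability or growth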
[8] = tested on: Streptococcus sp. 'group A'; assay: Streptococcus pyogenes SK(-)GAS viability under kanamycin – luminescence, BacTiterGlo, confirmation, counter-screen for streptokinase expression inhibitor project, dose response (AID 1900); type: functional, organism-based

T1 sequence (P98170 whole entry): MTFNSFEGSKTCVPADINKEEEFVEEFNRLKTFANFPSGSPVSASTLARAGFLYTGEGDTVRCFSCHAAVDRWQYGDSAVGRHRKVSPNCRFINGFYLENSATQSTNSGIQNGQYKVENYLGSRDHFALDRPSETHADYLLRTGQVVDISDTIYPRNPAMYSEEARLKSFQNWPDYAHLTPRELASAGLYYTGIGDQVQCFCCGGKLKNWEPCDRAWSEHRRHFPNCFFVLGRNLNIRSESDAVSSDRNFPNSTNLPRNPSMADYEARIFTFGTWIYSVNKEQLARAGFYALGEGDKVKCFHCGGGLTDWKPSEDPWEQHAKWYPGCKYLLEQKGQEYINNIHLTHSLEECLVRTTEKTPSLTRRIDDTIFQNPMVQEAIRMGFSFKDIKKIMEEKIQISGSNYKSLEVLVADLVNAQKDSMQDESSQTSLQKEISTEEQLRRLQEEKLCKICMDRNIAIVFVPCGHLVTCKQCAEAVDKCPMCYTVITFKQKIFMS

| IC50 [1] | IC50 [2] | EC50 [5] | SMILES | further results |
| --- | --- | --- | --- | --- |
| > 100 µM (not active) | > 100 µM (inactive) |  | Cc1cc(S(=O)(=O)N2CCN(Cc3ccccc3)CC2)c(C)s1 |  |
|  |  | 0.458 µM (active) | CCCC(=O)Nc1nn(C)c2nc3cc(C)ccc3cc12 |  |

Continued, compound first:

| SMILES | IC50 [1] | IC50 [2] | EC50 [5] | further results |
| --- | --- | --- | --- | --- |
| Cn1c(-c2cccc(OCc3ccccc3)c2)nc2c1c(=O)[nH]c(=O)n2Cc1ccccc1 |  |  |  | Absolute IC50 (XBP1) [3]: 10 µM |
| CC(C)CC(NC(=O)c1ccco1)C(=O)Nc1ccc2c(c1)OCCO2 (stereo unspecified) | > 100 µM (not active) | > 100 µM (inactive) |  | EC50 [4]: 11.3 µM (active) |
| COC(=O)c1ccccc1NC(=O)Cn1ccnc1 |  |  | 2.18 µM (active) |  |
| CN1CCN(c2ccccc2NC(=O)c2ccc(-c3cccc([N+](=O)[O-])c3)o2)CC1 | > 100 µM (not active) | > 100 µM (inactive) |  |  |
| O=C(O)COn1c(-c2ccccc2)nc2ccc([N+](=O)[O-])cc21 |  |  | 4.82 µM (active) | AC50 [6]: 5.23 µM (active) |
| CC[C@H]1OC(=O)[C@H](C)[C@@H](O[C@H]2C[C@@](C)(OC)[C@@H](O)[C@H](C)O2)[C@H](C)[C@@H](O[C@@H]2O[C@H](C)C[C@H](N(C)C)[C@H]2O)[C@](C)(O)C[C@@H](C)[C@@H]2N[C@@H](COCCOC)O[C@H]([C@H]2C)[C@]1(C)O [DIRITHROMYCIN] | > 100 µM (not active) | > 100 µM (inactive) |  | EC50 [7]: 0.117 µM (active); EC50 [8]: < 0.06 µM (active) |
